Marks after values point to notes of the source that are not given here.
What was measured:
AKR/J mice = assay: AKR/J mouse obesity model; format: in vivo; settings: for 3-hydroxy-butyrate / % body fat / FFA (Free Fatty Acids): NEFA (Non Esterified Fatty Acids) / Glucose / Lean Mass / Triglyceride / Insulin / Total body fat: five days; for Insulin: plasma; for Total body fat: high fat diet, Q-NMR
Method: AKR/J mice are a polygenic model of diet-induced obesity characterized by hypertriglyceridemia and hyperinsulinemia. AKR/J mice were received at seven weeks of age and allowed to acclimate for one week and then placed on high fat diet (45% of the calories from fat) for five weeks. Animals were treated for five days with 3 mpk (mg/kg) and 30 mpk Compound 1 (Example 1) given orally twice a day. Food intake was measured at day four. On day five, prior to necropsies, body weight was recorded and body composition was measured by Q-NMR (Quantitative Nuclear Magnetic Resonance). Animals were anesthetized with carbon dioxide and blood was collected by cardiac puncture. Plasma was obtained by centrifugation and used to determine circulating insulin levels and clinical chemistries, including liver functions tests, using commercially available kits as per manufacturers instructions. Several tissues were harvested, frozen in liquid nitrogen and stored at −80° C. for further use.

C57/BL6 male mice = assay: C57/Bl6 diet induced obesity mouse model; format: in vivo
From the text: C57/B16 mice placed on a high fat diet are characterized by hypertriglyceridemia, impaired glucose tolerance and develop hepatic steatosis. Forty C57/BL6 male mice were received at seven weeks of age, allowed to acclimate for one week, placed on high fat diet (Test Diet 58Y1 60% of the calories from fat) for 6 weeks, and then single housed on the same diet for an additional five weeks. Body mass composition and insulin were used to randomize the animals into three groups. […] Ten additional animals were maintained on a low fat diet (4% calories from fat) and during the course of the study were given vehicle orally once a day. Blood was collected from the tail to evaluate glucose, triglyceride, FFA and insulin levels. Body weight and body composition were also recorded. Upon necropsy animals were bled through the orbital sinus under CO2:O2 anesthesia, sacrificed, and several tissues were collected and frozen in liquid nitrogen for storage at −80° C. for further use. Serum plasma samples were prepared by centrifugation in EDTA containing tubes, transferred to 96 well plates and stored at −80° C. Insulin, FFA and triglyceride levels were obtained via Day 10 tail bleed. On day fourteen an OGTT (Oral Glucose Tolerance Test) was done to determine glucose disposal rates in C57B16 mice treated with compound.

[1] = biological target: T1, ERR1 (also known as ERR-α or ERR-1) (Homo sapiens, UniProt P11474); assay: TR-FRET assay (disruption of co-activator peptide binding to ERR1 LBD); format: biochemical
T1 sequence (P11474 193-421 limits assumed): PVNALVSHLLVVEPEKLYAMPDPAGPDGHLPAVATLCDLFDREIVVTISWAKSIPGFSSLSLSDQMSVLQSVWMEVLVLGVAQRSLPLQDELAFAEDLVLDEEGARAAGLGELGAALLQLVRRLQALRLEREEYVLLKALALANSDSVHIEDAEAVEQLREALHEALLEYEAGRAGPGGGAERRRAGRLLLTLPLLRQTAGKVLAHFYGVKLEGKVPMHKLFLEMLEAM
Method: Time-Resolved Fluorescence Resonance Energy Transfer (TR-FRET) experiments were performed to examine the functional response of ERR1 (also known as ERR-α or ERR-1) ligands. The TR-FRET assay described herein relied on the conformation of ERR1 for binding to a co-activator peptide: when a test compound binds to ERR1 and alters its conformation, it can disrupt the binding of the co-activator peptide. The components of this homogeneous secondary assay included: the ^6His-tagged-ERR1LBD, a GST-labeled-hSRC2 co-activator polypeptide and a fluorescent donor/acceptor pair from CIS bio international htrf/bioassays (Bedford, Mass.) using both an α-GST Europium Cryptate (Eu) label and an α^6His-XL665 (allophycocyanin) fluorophore.
Reactions were allowed to reach equilibrium at 25° C. for 4-18 hours before collecting data on the Analyst from LJL Biosystems (Molecular Devices Sunnyvale, Calif.). […] Dose response curves were fitted using a hyperbolic equation and the data reported is the average of 3 independent experiments.

[2] = 10 mpk once a day, HFD, 10 days
[3] = 10 mpk, after 14 days of treatment
[4] = 30 mpk once a day, HFD, 10 days
[5] = 30 mpk, after 14 days of treatment

COc1cc(/C=C2\SC(=O)NC2=O)ccc1Oc1ccc(C#N)cc1C(F)(F)F [Compound 1, 4-[4-(2,4-Dioxo-thiazolidin-5-ylidenemethyl)-2-methoxy-phenoxy]-3-trifluoromethyl-benzonitrile]
3-hydroxy-butyrate (AKR/J mice; 3 mpk orally twice a day): 8.3 ± 0.9 ×10−5
% body fat (AKR/J mice; 3 mpk orally twice a day): 12.7 ± 0.8%
FFA (Free Fatty Acids): NEFA (Non Esterified Fatty Acids) (AKR/J mice; 3 mpk orally twice a day): 0.59 ± 0.07 mM
Glucose (AKR/J mice; 3 mpk orally twice a day): 165.0 ± 5.0 mg/dL
Lean Mass (AKR/J mice; 3 mpk orally twice a day): 20.2 ± 0.3 g
Triglyceride (AKR/J mice; 3 mpk orally twice a day): 160.0 ± 18.9 mg/dL
Insulin (AKR/J mice; 3 mpk orally twice a day): 9.6 ± 1.5 ng/mL
3-hydroxy-butyrate (AKR/J mice; 30 mpk orally twice a day): 12.6 ± 1.8 ×10−5
% body fat (AKR/J mice; 30 mpk orally twice a day): 9.3 ± 0.6 %
FFA (Free Fatty Acids): NEFA (Non Esterified Fatty Acids) (AKR/J mice; 30 mpk orally twice a day): 0.41 ± 0.05 mM
Glucose (AKR/J mice; 30 mpk orally twice a day): 185.0 ± 10.01 mg/dL
Lean Mass (AKR/J mice; 30 mpk orally twice a day): 20.0 ± 0.2 g
Triglyceride (AKR/J mice; 30 mpk orally twice a day): 80.0 ± 9.8 mg/dL
Insulin (AKR/J mice; 30 mpk orally twice a day): 2.8 ± 0.8 ng/mL
Total body fat (AKR/J mice; AKR/J mice, 3 mpk orally twice a day): 3.87 ± 0.29 g
Total body fat (AKR/J mice; AKR/J mice, 30 mpk orally twice a day): 2.7 ± 0.2 g
body weight (AKR/J mice; FIG. 1, AKR/J mice, 3 and 30 mpk twice a day, day five): reduces body weight
food intake (AKR/J mice; FIG. 1, AKR/J mice, 3 and 30 mpk twice a day, day four): reduces food intake
FFA (C57/BL6 male mice; [2]): 0.38* mEq/L
Insulin (C57/BL6 male mice; [2]): 1.4* μg/L
Triglyceride (C57/BL6 male mice; 10 mpk once a day, HFD, 10 days, tail bleed): 58** mg/dL
AUC 0-60 min of glucose in OGTT (C57/BL6 male mice; [3]): 15077 mg/dL/1 hr
AUC 0-120 min of glucose in OGTT (C57/BL6 male mice; [3]): 27984 mg/dL/2 hr
3-hydroxy-butyrate (C57/BL6 male mice; 10 mpk, treated for 18 days): 6.0 ×10−5
FFA (NEFA) (C57/BL6 male mice; 10 mpk, treated for 18 days): 0.49 mEq
Glucose (C57/BL6 male mice; 10 mpk, treated for 18 days): 176 mg/dL
LDL (C57/BL6 male mice; 10 mpk, treated for 18 days): 12 mg/dL
Triglyceride (C57/BL6 male mice; 10 mpk, treated for 18 days): 123 mg/dL
FFA (C57/BL6 male mice; [4]): 0.40* mEq/L
Insulin (C57/BL6 male mice; [4]): 1.3* μg/L
Triglyceride (C57/BL6 male mice; 30 mpk once a day, HFD, 10 days, tail bleed): 59* mg/dL
AUC 0-60 min of glucose in OGTT (C57/BL6 male mice; [5]): 14425* mg/dL/1 hr
AUC 0-120 min of glucose in OGTT (C57/BL6 male mice; [5]): 28540 mg/dL/2 hr
3-hydroxy-butyrate (C57/BL6 male mice; 30 mpk, treated for 18 days): 9.1* ×10−5
FFA (NEFA) (C57/BL6 male mice; 30 mpk, treated for 18 days): 0.38* mEq
Glucose (C57/BL6 male mice; 30 mpk, treated for 18 days): 174 mg/dL
LDL (C57/BL6 male mice; 30 mpk, treated for 18 days): 7* mg/dL
Triglyceride (C57/BL6 male mice; 30 mpk, treated for 18 days): 58*** mg/dL
plasma glucose following an oral glucose tolerance test (C57/BL6 male mice; FIG. 2 and Table VI, after 14 days of treatment): reduces fasting plasma glucose following an oral glucose tolerance test
EC50 [1]: 0.054 µM
